Laboratory results reported in US12251417B2, “Antimicrobial compounds from the genus Delftia” (Ministry of Health, State of Israel, priority 2017, dated 2025).
Converted amounts (≈) assume the structure as drawn. Square brackets hold non-standard residues; d marks the D form. Peptide text beside a SMILES is read from it. * marks the point of attachment. ξ: configuration not given here. NH(1-OH-2-oxopiperidin-3-yl) = O=C1C(N*)CCCN1O; ξOrn(N(OH)CHO) = NC(CCCN(O)C=O)C(=O)O; ξAsp(3ξ-OH) = NC(C(=O)O)C(O)C(=O)O; X1 = CC(N)C(O)C(C)C(=O)*; Dhb = C/C=C(\N)C(=O)O

Key:
Deftia strain 2189 = assay: Delftibactin A as carrier of gallium; type: cell-based, Delftia; conditions: with gallium
From the text: FIG. 36 is a graph illustrating that Delftibactin A can be used as a carrier of inhibitory antimicrobial agents such as gallium to inhibit harmful bacterial strains such as Deftia strain 2189.

C. albicans ATCC64124 = assay: Broth microdilution MIC; type: cell-based; conditions: lowest concentration that inhibited ≥50% of growth after overnight incubation
Protocol: Deftibactin A was serially diluted in DMSO with a dilution factor of 2, to provide 10 concentrations for all the assays. The MIC is defined as the lowest concentration of compound that inhibited ≥90% or ≥50% of the growth of a microorganism after overnight incubation. Genedata Screener software (Genedata, Inc., Basel, Switzerland) was used to analyze the data and to determine the MICs and calculate the RZ′ factor, to estimate the robustness of the assays. Delftibactin A was tested on two different days and in triplicate.
Broth microdilution was used to determine the minimal inhibitory concentration (MIC) according to the standards of the Clinical and Laboratory Standards Institute (CLSI) or the European Committee on Antimicrobial Susceptibility Testing (EUCAST). Cation-adjusted Mueller-Hinton broth (CAMHB) was used with inoculum of about 5×10^5 cfu ml^−1 of the tested pathogen. Direct suspension of overnight colonies into CAMHB was used for the generation of the bacterial suspension. The tested inhibited compound or supernatant was used in doubling dilutions in 50 μl of CAMHB and inoculated with an equal amount of bacteria in the broth.

HepG2 = assay: MTT cytotoxicity assay; type: cell-based, human; conditions: 24/72 hours
From the text: (§1) MTT (3-(4,5-Dimethylthiazol-2-yl)-2,5-diphenyltetrazolium bromide) is a colorimetric assay for measuring the activity of cellular enzymes that reduce the tetrazolium dye, MTT, to its insoluble formazan, giving a purple color. This assay measure mitochondrial metabolic activity via NAD(P)Hdependent cellular oxidoreductase enzymes and may, under defined conditions, reflect the number of viable cells. The cells used in this study were: Hep G2 (HB-8065) is a perpetual cell line which was derived from the liver tissue of a person with a well-differentiated hepatocellular carcinoma. THLE-2 is a perpetual cell line which was derived from the liver epithelial cells of an adult human transformed with SV40 large T antigen.
(§2) The assay: cell concentration treatment 24 hours: Cells were seeded at a concentration of 2×10^4 cells/well in 200 μl culture medium and incubated at 37° C. in 5% CO2. Cell concentration treatment 72 hours: Cells were seeded at a concentration of 1×10^4 cells/well in 200 μl culture medium and incubated at 37° C. in 5% CO2. After 24 hours, the medium was replaced with a final volume of 200 μl and 1 μl of compound (dilution 1/200) and controls were added to the plates. […]
(§3) When extracts/compounds and controls were added, plates were incubated at 37° C. in 5% CO2 incubator for 24/72 hours. […] The absorbance was measured using a multireader Victor™ at a wavelength of 570 nm.

THLE2 = assay: MTT cytotoxicity assay; type: cell-based, human; conditions: 24/72 hours
From the text: as §1, §2, §3

[1] = test system: vancomycin resistant enterococci (VRE); assay: Inhibition of VRE by Delftibactin A alone and with antibiotics; type: cell-based
From the text: FIG. 33 is a graph illustrating that Delftibactin A inhibits Vancomycin Resistant Enterococci (VRE).

SMILES: C/C=C(\NC(=O)CNC(=O)C(NC(=O)C(NC(=O)C(C)C(O)C(C)N)C(O)C(=O)O)C(C)O)C(=O)NC(CCCN(O)C=O)C(=O)NC(CO)C(=O)NC(CCCN=C(N)N)C(=O)NC1CCCN(O)C1=O (stereo not shown) [Delftibactin A] (X1-[ξAsp(3ξ-OH)]TG[Dhb][ξOrn(N(OH)CHO)]SR-{NH(1-OH-2-oxopiperidin-3-yl)}; configuration not given here)
- inhibition of Deftia strain 2189 as carrier of gallium (Deftia strain 2189): inhibit
- MIC50 (C. albicans ATCC64124): 16 µg/mL (≈ 15.5 µM)
- cytotoxic activity (MTT) (HepG2): not have cytotoxic activity
- cytotoxic activity (MTT) (THLE2): not have cytotoxic activity
- inhibition of vancomycin resistant enterococci (VRE) [1]: inhibits
- combined antimicrobial effect with clarithromycin on VRE ([1]; Delftibactin A 10 μM): additive combined antimicrobial effect
- combined antimicrobial effect with rifampicin on VRE ([1]; Delftibactin A 10 μM): additive combined antimicrobial effect
